Laboratory results published in patent US4413005A, “Carbamate derivatives and insecticidal, miticidal or nematocidal compositions containing the same” (priority 1981, dated 1983).
Entries after “also recorded” stand apart in the source; their conditions may differ.

Columns and labels:
[1] = Acute oral toxicity in male mice, LD50 by Litchfield-Wilcoxon method (Test Example 5); conditions: mouse, in vivo, mortality on the seventh day
Protocol: Compounds of this invention were tested on male mice for acute toxicity by oral administration.

[2] = tested on: tobacco cutworm (Spodoptera litura); test: Mortality of third-instar larvae of tobacco cutworm on cabbage (Test Example 1); assay type: in vivo; conditions: 72 h
Protocol: Ten third-instar larvae of tobacco cutworm (Spodoptera litura) were placed on a cabbage (one-month-old seedling) planted in a pot, and a 50% emulsion of the compound to be tested was diluted to a specified concentration and applied to the leaves of the plant to fully wet them. The test compound of each specified concentration was tested on two pots.

[3] = tested on: house fly (Musca domestica); test: Local application to house fly, LD50 by Probit method (Test Example 4); assay type: in vivo; conditions: topical, 24 h
Protocol: The compound to be tested was dissolved in a predetermined amount of acetone. The solution was diluted to various concentrations and locally applied to house fly (Musca domestica).

[4] = tested on: green rice leafhopper (Nephotettix cincticeps); test: Mortality of female adults of green rice leafhopper on paddy rice (Test Example 2); assay type: in vivo; conditions: 72 h
Protocol: An emulsion of specified concentration was prepared from a 50% wettable powder of the compound to be tested and applied to the leaves of paddy rice (one-month-old seedlings) planted in a pot to fully wet the leaves. After the emulsion had been dried, the pot was covered with a net cage, into which 10 female adults of green rice leafhopper (Nephotettix cincticeps) were released. The compound of each specified concentration was tested on two pots.

warm-blooded animals = conditions: background statement, known; cited from earlier work
noxious insects = conditions: background statement, known; cited from earlier work

Row | SMILES | LD50 at 168 h [1] [mg/kg] | mortality at 500 ppm [2] [%] | mortality at 1000 ppm [2] [%] | mortality at 2000 ppm [2] [%] | LD50 [3] [mg/kg] | mortality at 200 ppm [4] [%] | mortality at 400 ppm [4] [%] | mortality at 800 ppm [4] [%] | toxicity to warm-blooded animals (warm-blooded animals) | insecticidal activity (noxious insects)
1 | CCOC(=O)CN(SN(C)C(=O)Oc1cccc2c1OC(C)(C)C2)C(=O)c1ccc(Cl)cc1 [Example 47] | 95 | 65 | 80 | 100 | 57.8 | 60 | 75 | 95 |  | 
2 | CCOC(=O)CN(SN(C)C(=O)Oc1cccc2c1OC(C)(C)C2)S(=O)(=O)c1ccc(C)cc1 [Example 48] | 80 | 65 | 80 | 100 | 58.6 | 60 | 75 | 95 |  | 
3 | CCOC(=O)CN(SN(C)C(=O)Oc1cccc2c1OC(C)(C)C2)C(=O)OC [Example 49] | 105 | 75 | 90 | 100 | 15.7 | 70 | 90 | 100 |  | 
4 | CCOC(=O)CN(SN(C)C(=O)Oc1cccc2c1OC(C)(C)C2)C(=O)Oc1ccccc1 [Example 50] | 95 | 65 | 80 | 100 | 34.7 | 60 | 75 | 95 |  | 
5 | CCOC(=O)N(CCC#N)SN(C)C(=O)Oc1cccc2c1OC(C)(C)C2 [Example 51] | 88 | 70 | 85 | 100 | 45.3 | 65 | 85 | 100 |  | 
6 | CCOC(=O)CCN(SN(C)C(=O)Oc1cccc2c1OC(C)(C)C2)C(=O)OCC [Example 52] | 125 | 70 | 85 | 100 | 54.3 | 65 | 85 | 100 |  | 
7 | CNC(=O)Oc1cccc2c1OC(C)(C)C2 [carbofuran, 2,3-dihydro-2,2-dimethylbenzofuran-7-yl N-methyl-carbamate] | 5.6 |  |  |  |  |  |  |  | high toxicity to warm-blooded animals | high insecticidal activity; also recorded: highest insecticidal activity heretofore known
